Assays:
IL-1β in BV2 cells = experiment: LPS-induced IL-1β protein in BV2 cell culture supernatant (ELISA); format: cell-based, mice; conditions: 5 μg/mL, 16 hours pre-culture, LPS (1 g/mL) 6 hours, n=4, FIG. 2
Description: (§1) Under conditions where KIT-2 or KIT-13 was present (5 μg/mL), or where neither KIT-2 nor KIT-13 was present, BV2 cells, which are microglial cells in mice, were cultured for 16 hours in DMEM medium supplemented with 2% fetal bovine serum (FBS). Thereafter, treatment with LPS ([…]) was carried out for 6 hours. Subsequently, nuclear protein was extracted from the cells, and p65 was detected by the Western blotting method. The antibody used for the detection was an anti-p65 NFkB antibody (Ref no. 51-0500, manufactured by Invitrogen).
In addition, 20 μL of the cell culture supernatant after the LPS treatment was subjected to detection of the inflammatory cytokine IL-1ß by the ELISA method using a mouse IL-1β ELISA kit (manufactured by R&D Systems; Catalog No. DY401-05).

[1] = Evaluation of body weight of MeCP2-deficient mice; format: in vivo; conditions: male MeCP2-deficient mice, 20 ng/g body weight, drinking water
Description: MeCP2-deficient mice to which KIT-13 was administered were subjected to measurement of the body weight every week, and changes in the body weight were evaluated. For the test, 4-week-old male MeCP2-deficient mice were used. The MeCP2-deficient mice were divided into the following two groups: a KIT-13 administration group (KO-KIT-13, n=14) and a control group (KO, n=21). In the KIT-13 administration group, KIT-13 was administered at 20 ng/g body weight by drinking-water administration in the same manner as in Test Example 3. In the control group, only water was given in the same manner.

MeCP2-deficient mice [2] = experiment: Evaluation of lifetime using RTT model mice; format: in vivo; conditions: male MeCP2-deficient mice, 20 ng/g body weight, drinking water twice a week
Description: For the test, 4-week-old male MeCP2-deficient mice were used. The MeCP2-deficient mice were divided into the following two groups: a KIT-13 administration group (KO-KIT-13, n=14) and a control group (KO, n=28). The body weight of each mouse was measured in advance. For the KIT-13 administration group, KIT-13 was suspended in water by ultrasonication, and administered twice a week by drinking-water administration such that 20 ng/g body weight of KIT-13 was taken. On the other hand, in the control group, only water was given in the same manner.

IL-1β gene in BV2 cells = experiment: LPS-induced IL-1β gene expression in BV2 cells (PCR); format: cell-based, mice; conditions: 5 μg/mL, 16 hours pre-culture, LPS (1 μg/mL) 2 hours, vs. no addition, β-actin internal standard, FIG. 3
Description: Under conditions where sPIs or KIT-13 was present (5 μg/mL), or where neither sPIs nor KIT-13 was present, BV2 cells were cultured for 16 hours in DMEM medium supplemented with 2% fetal bovine serum (FBS). Thereafter, treatment with LPS (1 μg/mL) was carried out for 2 hours. Subsequently, cellular RNA was extracted using the TRIzol (trademark) reagent, and cDNA was prepared from the RNA using a PrimeScript (trademark) 1st strand cDNA Synthesis Kit (manufactured by Takara; 6110). Using TaKaRa Taq (trademark) (manufactured by Takara; R110A), the expression levels of the IL-1β gene and, as an internal standard, the β-actin gene were quantified by polymerase chain reaction (PCR).
The base sequences of the forward primer and the reverse primer for the IL-1ß gene are shown in SEQ ID NOs: 1 and 2, respectively. The base sequences of the forward primer and the reverse primer for the β-actin gene are shown in SEQ ID NOs: 3 and 4, respectively.

[3] = test system: c57BL6J mice with LPS-induced memory impairment; experiment: Water maze test in LPS-induced memory impairment model mice; format: in vivo; conditions: 10 mg/50 kg/day in drinking water for 30 days plus 7 days LPS (250 mg/kg/day), sixth trial, P<0.01, n=5, FIG. 7
Description: The effect of KIT-13 on LPS-induced memory impairment in mice was studied. Eight-week-old male c57BL6J mice (5 individuals per group; n=5) were allowed to drink KIT-13 for 30 days at a dose of 10 mg/50 kg/day, and then LPS treatment (250 mg/kg/day) was carried out for 7 days while the mice were similarly allowed to drink KIT-13. Thereafter, a water maze test was carried out for 2 days (three trials per day).
The time required for the mice to reach an escape platform (arrival time) was as illustrated in FIG. 7. Intergroup comparison was carried out using the ANOVA test and the Bonferroni post-hoc test. […] Thus, KIT-13 is effective for improvement of the brain function (cognitive function).

p65 (NFkB) in BV2 cells = experiment: LPS-induced nuclear p65 expression in BV2 cells (Western blotting); format: cell-based, mice; conditions: 5 μg/mL, 16 hours pre-culture, LPS (1 g/mL) 6 hours, 20 μg nuclear protein, n=2, FIG. 1
Description: as §1

MeCP2-deficient mice [4] = experiment: RTT-like scoring using RTT model mice; format: in vivo; conditions: male MeCP2-deficient mice, 20 ng/g body weight, drinking water, scored weekly from 5 weeks old, FIG. 5
Description: RTT-like symptoms in MeCP2-deficient mice to which KIT-13 was administered were evaluated by RTT-like scoring. For the test, 4-week-old male MeCP2-deficient mice were used. The MeCP2-deficient mice were divided into the following two groups: a KIT-13 administration group (KO-KIT-13, n=14) and a control group (KO, n=15). In the KIT-13 administration group, KIT-13 was administered at 20 ng/g body weight by drinking-water administration in the same manner as in Test Example 3. In the control group, only water was given in the same manner.
The RTT-like scoring was carried out once a week from 5 weeks old, for the following items 1 to 6.
Each mouse was observed after gently placing the mouse on a platform. • 0 points: Same as the wild type. • 1 point: Lower mobility compared to the wild type. (The period of freezing after the first placement on the platform is longer, or the period during which the mouse is standing still is longer.) • 2 points: No spontaneous movement after the placement on the platform. The mouse can move in response to mild stimuli or food placed nearby.
• 0 points: Same as the wild type. • 1 point: Due to a severe reduction in the pelvis, the mouse spreads the hindlimbs apart during walking or running, compared to the wild type. Waddling gait.
Staggering gait. • 2 points: More remarkable abnormality. […]

CCCCC/C=C\C/C=C\C/C=C\C/C=C\CCCC(=O)O[C@H](COCCCCCCCCCCCCCCCCCC)COP(=O)(O)OCCN [KIT-13]
LPS-induced expression of the inflammatory cytokine IL-1β (protein per 5000 cells) (IL-1β in BV2 cells): remarkably decreased | toxicity (concluded from body weight) [1]: non-toxic | changes in the body weight vs control group ([1]; weekly measurement, t-test, FIG. 6): No statistical difference | survival rate vs control group (MeCP2-deficient mice [2]; FIG. 4): higher survival rate than the control group | number of days required for the survival rate to decrease to 50% (MeCP2-deficient mice [2]; n=14, control 64.5 days): 90 days | expression of the IL-1β gene (IL-1β gene in BV2 cells): significantly suppressed | memory (arrival time at escape platform) vs LPS group [3]: showed improvement in the memory | LPS-induced nuclear accumulation of p65 (p65 (NFkB) in BV2 cells): remarkably suppressed | RTT-like score (MeCP2-deficient mice [4]): reduced the RTT-like score

From patent US20260166061A1, “COMPOUND, RACEMATE OF SAID COMPOUND, SALT OF SAID COMPOUND OR SAID RACEMATE, COMPOSITION, ANTI-INFLAMMATORY AGENT, THERAPEUTIC AGENT FOR DEMENTIA, AND THERAPEUTIC AGENT FOR RETT SYNDROME” (INSTITUTE OF RHEOLOGICAL FUNCTION OF FOOD CO., LTD., priority 2021, published 2026)
